Experiment [1] concerns the target T1, MytiLec (Mytilus galloprovincialis, UniProt B3EWR1, T39A).
T1 construct: full-length from codon-optimised synthetic gene, initial Thr changed to Ala; N-terminal His6 tag cut by thrombin, product begins GSHMATF; E. coli BL21(DE3) RILP; homodimer 34 kDa
The experiment can be described thus: ITC, single-site model; crystal structure […] Å. Format: binding. As to conditions: 10 mM HEPES pH 7.4, 100 mM NaCl, 298 K; averaged over three sites per monomer (one type of independent site); crystal shows alpha anomer at all six sites of the dimer. Background: In ITC the heat of successive injections is recorded.

Experiment [2] has as its target T1, MytiLec. Description: ITC, single-site model. Format: binding. As to conditions: 10 mM HEPES pH 7.4, 100 mM NaCl, 298 K; averaged over three sites per monomer (one type of independent site).
The target of experiment [3] is MytiLec(F93DF94S) (Mytilus galloprovincialis).
Experiment [4] addresses Recombinant MytiLec (Mytilus galloprovincialis). Description: AUC; sedimentation velocity, 50 mM potassium phosphate pH 7.4, 0.1 M NaCl, 293 K, 50,000 rpm, absorbance at 280 nm, c(s) converted to c(M); wild-type protein.

As a reminder, the Kd is the constant that tells how readily two partners part at equilibrium. A high value points to lower affinity. As a reminder, the stoichiometry N is the number of molecules, sites or subunits per partner or assembly.

T1 sequence (B3EWR1 39-187 T39A): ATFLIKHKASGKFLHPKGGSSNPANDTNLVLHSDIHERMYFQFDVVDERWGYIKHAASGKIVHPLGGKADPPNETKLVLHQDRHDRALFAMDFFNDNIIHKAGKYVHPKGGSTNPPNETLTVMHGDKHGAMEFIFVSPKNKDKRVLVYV

As for `CC(=O)N[C@H]1C(O)O[C@H](CO)[C@H](O)[C@@H]1O` (stereo partly shown) [GalNAc], the Kd on MytiLec [1] is 130 µM.
Take `OC[C@H]1OC(O)[C@H](O)[C@@H](O)[C@H]1O` (stereo partly shown) [galactose]: at MytiLec [2], the Kd worked out at 200 µM.
Regarding MytiLec(F93DF94S) (natural protein), the haemagglutination activity on rabbit erythrocytes, monomer mutant against the dimer (times less than the dimer) in experiment [3] turned out to be 10.
Take Recombinant MytiLec (natural protein): the stoichiometry N in experiment [4] stood at 2.

These data come from article PMC4913266, “Crystal structure of MytiLec, a galactose-binding lectin from the mussel Mytilus galloprovincialis with cytotoxicity against certain cancer cell types” (Scientific Reports, 2016).
